From patent publication US11834453B2, “Substituted pyrimido[5,4-d]pyrimidines as HER2 inhibitors” (Array BioPharma Inc., priority 2020, dated 2023)

Tests used:
[1] = biological target: ErbB2 insYVMA (HER2-YVMA, SEQ ID NO: 2) (Homo sapiens, UniProt P04626, INS775YVMA/P1170A); test: biochemical; settings: ErbB2 insYVMA enzyme assay; read-out: Assay 1 IC50
ErbB2 WT = ErbB2 WT (Homo sapiens (Human), UniProt P04626); test: ErbB enzyme assay (CisBio HTRF KinEASE-TK), Assay 2; assay type: biochemical
Summary of the method: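 Readout is HTRF KinEASE-TK, using Sa-XL665 and cryptate antibody for 1 h at 22 °C, as percent of control between DMSO-only (100) and pre-quenched (0) reactions. The kinase reaction runs 30 min at 22 °C with 1 mM ATP and 250 nM biotinylated TK substrate, in HEPES pH 7.4 with MgCl2 and 2% DMSO.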

EGFR = EGFR (Homo sapiens (Human), UniProt P00533); test: ErbB enzyme assay (CisBio HTRF KinEASE-TK), Assay 3; assay type: biochemical
Sequence of EGFR (P00533 25-1210): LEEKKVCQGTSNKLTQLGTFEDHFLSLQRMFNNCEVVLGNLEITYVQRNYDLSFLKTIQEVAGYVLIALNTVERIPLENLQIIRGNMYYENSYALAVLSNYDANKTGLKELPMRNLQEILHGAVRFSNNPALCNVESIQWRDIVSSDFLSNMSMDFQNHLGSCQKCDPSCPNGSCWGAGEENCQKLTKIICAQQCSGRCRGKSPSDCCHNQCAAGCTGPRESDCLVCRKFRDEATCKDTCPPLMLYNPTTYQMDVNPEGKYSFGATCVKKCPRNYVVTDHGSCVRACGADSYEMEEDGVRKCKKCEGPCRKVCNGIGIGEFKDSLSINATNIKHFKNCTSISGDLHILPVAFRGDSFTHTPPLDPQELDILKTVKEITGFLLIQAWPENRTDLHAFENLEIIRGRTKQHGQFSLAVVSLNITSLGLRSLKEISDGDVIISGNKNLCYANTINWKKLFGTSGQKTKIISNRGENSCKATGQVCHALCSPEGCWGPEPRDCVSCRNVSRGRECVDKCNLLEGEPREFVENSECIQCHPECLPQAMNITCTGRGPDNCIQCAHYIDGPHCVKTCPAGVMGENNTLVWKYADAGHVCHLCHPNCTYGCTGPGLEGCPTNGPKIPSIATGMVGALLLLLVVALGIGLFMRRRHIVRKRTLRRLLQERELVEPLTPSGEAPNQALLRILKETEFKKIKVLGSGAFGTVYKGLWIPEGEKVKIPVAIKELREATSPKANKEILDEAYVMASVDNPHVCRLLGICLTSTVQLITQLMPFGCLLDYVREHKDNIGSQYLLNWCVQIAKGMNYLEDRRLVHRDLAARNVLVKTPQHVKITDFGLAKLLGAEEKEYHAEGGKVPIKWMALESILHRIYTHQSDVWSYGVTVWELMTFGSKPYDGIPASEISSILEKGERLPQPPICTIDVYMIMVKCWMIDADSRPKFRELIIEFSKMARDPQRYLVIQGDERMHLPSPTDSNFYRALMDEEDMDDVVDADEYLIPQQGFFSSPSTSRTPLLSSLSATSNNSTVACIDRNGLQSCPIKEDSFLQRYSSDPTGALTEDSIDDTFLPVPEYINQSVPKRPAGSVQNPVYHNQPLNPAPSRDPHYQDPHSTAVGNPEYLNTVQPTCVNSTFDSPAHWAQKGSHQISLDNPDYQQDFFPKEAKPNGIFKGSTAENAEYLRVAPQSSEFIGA
Summary of the method: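 IC50 was taken where a 4-parameter logistic fit crossed 50 percent of control (DMSO 100, pre-quenched 0), read by ratiometric HTRF. Reactions ran 30 min at 22 °C with 1 mM ATP and 250 nM TK-substrate biotin in pH 7.4 HEPES buffer with MgCl2, Triton X-100 and 2% DMSO.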

[2] = biological target: ErbB2 with Exon 20 YVMA insertion (HER2-YVMA) (Homo sapiens (Human), UniProt P04626, INS775YVMA); test: Cellular phosphorylation assay, constitutive ErbB2 phosphorylation (Y1196) in engineered NIH 3T3 cells, Assay 4; assay type: cell-based
Summary of the method: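 In-cell Western in NIH 3T3 cells carrying ErbB2 exon 20 YVMA insertion, with no ligand stimulation. One hour compound exposure at 37 °C before fixation and anti-pY1196 plus GAPDH staining with dual-wavelength fluorescence. IC50 derived after GAPDH normalization.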

EGFR wild type (EGFR WT) = EGFR wild type (EGFR WT) (Homo sapiens (Human), UniProt P00533); test: Cellular phosphorylation assay, EGF-stimulated EGFR phosphorylation in engineered NIH 3T3 cells, Phospho-EGFR DuoSet IC ELISA, Assay 5; assay type: cell-based
Sequence of EGFR wild type (EGFR WT) (P00533 25-1210): as above
Summary of the method: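 Phospho-EGFR ELISA on lysates of engineered NIH 3T3 EGFR WT cells, IC50 derived from concentration curves. Cells plated at 20,000/well overnight, given compound dilutions 1 h at 37 °C, then rEGF 100 ng/ml for a further 10 min before lysis.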

MDR1 (P-gp) = MDR1 (P-gp) (Homo sapiens (Human), UniProt P08183); test: MDR1 transfected MDCKII canine Mdr1 knockout permeability/efflux, Assay 7; settings: dog, MDCK-MDR1
BCRP = BCRP (Homo sapiens (Human), UniProt Q9UNQ0); test: BCRP transfected MDCKII canine Mdr1 knockout permeability/efflux, Assay 9; settings: dog
[3] = Assay 9 Pe Ratio, efflux ratio Papp(B-A)/Papp(A-B), BCRP transfected MDCKII canine Mdr1 knockout

Sequence of ErbB2 insYVMA (HER2-YVMA, SEQ ID NO: 2) (P04626 with tags, fused parts or gaps INS775YVMA/P1170A limits assumed): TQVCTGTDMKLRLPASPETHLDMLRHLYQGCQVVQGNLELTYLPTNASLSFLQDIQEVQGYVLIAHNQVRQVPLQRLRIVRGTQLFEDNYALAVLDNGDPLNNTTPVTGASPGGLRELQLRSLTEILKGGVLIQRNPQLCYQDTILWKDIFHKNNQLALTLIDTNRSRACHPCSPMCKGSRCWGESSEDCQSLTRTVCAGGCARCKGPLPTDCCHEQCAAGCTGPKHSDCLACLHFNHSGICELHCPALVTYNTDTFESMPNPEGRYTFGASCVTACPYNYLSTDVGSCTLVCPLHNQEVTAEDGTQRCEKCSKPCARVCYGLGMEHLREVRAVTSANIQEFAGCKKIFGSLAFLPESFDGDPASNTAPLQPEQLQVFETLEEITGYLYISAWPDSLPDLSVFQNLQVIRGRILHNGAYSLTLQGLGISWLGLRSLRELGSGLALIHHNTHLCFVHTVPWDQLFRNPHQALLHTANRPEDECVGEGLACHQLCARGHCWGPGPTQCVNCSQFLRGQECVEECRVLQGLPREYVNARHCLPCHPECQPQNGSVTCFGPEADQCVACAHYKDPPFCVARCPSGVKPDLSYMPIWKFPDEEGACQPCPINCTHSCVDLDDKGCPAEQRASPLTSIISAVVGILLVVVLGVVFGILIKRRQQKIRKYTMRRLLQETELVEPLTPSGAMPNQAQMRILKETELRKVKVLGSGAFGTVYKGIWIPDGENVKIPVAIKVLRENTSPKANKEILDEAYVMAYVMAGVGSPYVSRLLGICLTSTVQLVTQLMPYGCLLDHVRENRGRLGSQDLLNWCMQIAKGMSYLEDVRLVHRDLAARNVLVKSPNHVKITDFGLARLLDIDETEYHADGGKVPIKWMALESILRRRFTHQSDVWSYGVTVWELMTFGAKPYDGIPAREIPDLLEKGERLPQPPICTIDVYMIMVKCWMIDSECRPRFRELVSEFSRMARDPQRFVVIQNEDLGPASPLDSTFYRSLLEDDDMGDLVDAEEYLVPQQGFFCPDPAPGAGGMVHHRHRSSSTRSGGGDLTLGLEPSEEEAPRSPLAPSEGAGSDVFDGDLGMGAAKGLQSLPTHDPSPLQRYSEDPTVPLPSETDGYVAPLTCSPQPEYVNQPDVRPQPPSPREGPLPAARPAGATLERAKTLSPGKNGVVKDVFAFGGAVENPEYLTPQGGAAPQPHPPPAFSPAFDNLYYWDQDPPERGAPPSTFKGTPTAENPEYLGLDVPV
Sequence of ErbB2 WT (P04626 23-1255): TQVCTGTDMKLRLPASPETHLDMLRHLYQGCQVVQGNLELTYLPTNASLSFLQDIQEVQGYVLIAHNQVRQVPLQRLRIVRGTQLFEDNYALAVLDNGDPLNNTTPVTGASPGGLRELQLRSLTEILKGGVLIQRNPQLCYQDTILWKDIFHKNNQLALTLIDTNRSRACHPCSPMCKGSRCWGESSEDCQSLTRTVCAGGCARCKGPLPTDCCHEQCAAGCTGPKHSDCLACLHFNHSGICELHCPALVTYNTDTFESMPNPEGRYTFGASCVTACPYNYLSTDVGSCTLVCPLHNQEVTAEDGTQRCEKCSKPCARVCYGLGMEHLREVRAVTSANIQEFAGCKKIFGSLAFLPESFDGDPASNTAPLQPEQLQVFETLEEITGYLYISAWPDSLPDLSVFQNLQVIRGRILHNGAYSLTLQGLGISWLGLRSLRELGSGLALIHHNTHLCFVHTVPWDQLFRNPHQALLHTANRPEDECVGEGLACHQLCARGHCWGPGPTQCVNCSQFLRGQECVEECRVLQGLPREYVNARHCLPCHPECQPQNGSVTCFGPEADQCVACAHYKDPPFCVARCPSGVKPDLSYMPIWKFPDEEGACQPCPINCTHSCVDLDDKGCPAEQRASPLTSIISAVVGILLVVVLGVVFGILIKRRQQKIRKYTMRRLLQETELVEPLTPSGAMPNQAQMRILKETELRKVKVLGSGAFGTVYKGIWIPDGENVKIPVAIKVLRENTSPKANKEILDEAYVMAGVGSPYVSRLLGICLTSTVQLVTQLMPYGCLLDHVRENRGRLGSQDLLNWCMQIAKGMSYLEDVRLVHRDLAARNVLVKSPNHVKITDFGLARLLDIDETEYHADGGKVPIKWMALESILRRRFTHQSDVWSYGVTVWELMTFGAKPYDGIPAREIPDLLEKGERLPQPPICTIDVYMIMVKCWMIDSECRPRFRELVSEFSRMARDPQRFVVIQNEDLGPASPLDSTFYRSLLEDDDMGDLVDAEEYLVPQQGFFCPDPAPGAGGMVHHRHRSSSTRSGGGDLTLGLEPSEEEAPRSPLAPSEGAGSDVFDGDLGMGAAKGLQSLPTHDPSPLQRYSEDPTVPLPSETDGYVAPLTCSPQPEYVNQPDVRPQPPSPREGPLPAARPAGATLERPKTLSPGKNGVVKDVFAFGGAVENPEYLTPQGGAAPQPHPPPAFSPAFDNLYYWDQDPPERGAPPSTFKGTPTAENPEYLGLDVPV

| SMILES | IC50 [1] | IC50 (ErbB2 WT) | IC50 (EGFR) | IC50 [2] | IC50 (EGFR wild type (EGFR WT)) | efflux ratio at 2 h, 1 μM (MDR1 (P-gp)) | efflux ratio at 2 h, 1 μM (BCRP; [3]) | efflux ratio at 2 h, 1 μM (BCRP) |
| --- | --- | --- | --- | --- | --- | --- | --- | --- |
| Cc1cc(Nc2ncnc3cnc(N4CCC(O)(C(F)F)CC4)nc23)ccc1Oc1ccc2c(c1)ncn2C [Example 168, 4-(difluoromethyl)-1-(8-((3-methyl-4-((1-methyl-1H-benzo[d]imidazol-5-yl)oxy)phenyl)amino)pyrimido[5,4-d]pyrimidin-2-yl)piperidin-4-ol] | 39.1 nM | 113 nM | 3680 nM | 6.5 nM | ≥ 5000 nM | 2 | 16.7 |  |
| Cc1cc(Nc2ncnc3cnc(N4CCC(F)(F)C4)nc23)ccc1Oc1ccc2c(c1)ncn2C [Example 299] | 49.8 nM | 146 nM | ≥ 10000 nM | 30.5 nM | ≥ 5000 nM | 0.4 | 1.2 |  |
| Cc1cc(Nc2ncnc3cnc(N4CC[C@@](O)(C(F)F)C4)nc23)ccc1Oc1ccc2c(c1)ncn2C (racemic) [Example 106, rac-(R)-3-(difluoromethyl)-1-(8-((3-methyl-4-((1-methyl-1H-benzo[d]imidazol-5-yl)oxy)phenyl)amino)pyrimido[5,4-d]pyrimidin-2-yl)pyrrolidin-3-ol] | 16.8 nM | 16.6 nM | 2840 nM | 18.4 nM | ≥ 5000 nM | 2.6 | 24.3 |  |
| Cc1cc(Nc2ncnc3cnc(N4CCC(C)(O)CC4)nc23)ccc1Oc1ccn2ncnc2c1 [Example 120, 1-(8-((4-([1,2,4]triazolo[1,5-a]pyridin-7-yloxy)-3-methylphenyl)amino)pyrimido[5,4-d]pyrimidin-2-yl)-4-methylpiperidin-4-ol] | 20.6 nM | 19 nM | 5340 nM | 49.4 nM | ≥ 5000 nM | 1.3 | 7.8 |  |
| Cc1cc(Nc2ncnc3cnc(N(C)C4COC4)nc23)ccc1Oc1ccc2c(c1)ncn2C [Example 175, N2-methyl-N8-(3-methyl-4-((1-methyl-1H-benzo[d]imidazol-5-yl)oxy)phenyl)-N2-(oxetan-3-yl)pyrimido[5,4-d]pyrimidine-2,8-diamine] | 4.2 nM | 6.3 nM | 6510 nM | 13.9 nM | ≥ 5000 nM | 1.4 | 1.5 |  |
| Cc1cc(Nc2ncnc3cnc(N(C)C4CCOCC4)nc23)ccc1Oc1ccc2c(c1)ncn2C [Example 153, N2-methyl-N8-(3-methyl-4-((1-methyl-1H-benzo[d]imidazol-5-yl)oxy)phenyl)-N2-(tetrahydro-2H-pyran-4-yl)pyrimido[5,4-d]pyrimidine-2,8-diamine] | 7.6 nM | 16.3 nM | 5550 nM | 25 nM | ≥ 5000 nM | 1.5 | 1.4 |  |
| Cc1cc(Nc2ncnc3cnc(N4C[C@@H](O)C5(CC5)C4)nc23)ccc1Oc1ccc2c(c1)ncn2C [Example 211, (S)-5-(8-((3-methyl-4-((1-methyl-1H-benzo[d]imidazol-5-yl)oxy)phenyl)amino)pyrimido[5,4-d]pyrimidin-2-yl)-5-azaspiro[2.4]heptan-7-ol] | 10.9 nM | 31 nM | 3140 nM | 14.8 nM | ≥ 5000 nM | 3.3 |  | 25.2 |
| Cc1cc(Nc2ncnc3cnc(N4CCN5CCOC[C@H]5C4)nc23)ccc1Oc1ccc2c(c1)ncn2C [Example 180, (R)-6-(hexahydropyrazino[2,1-c][1,4]oxazin-8(1H)-yl)-N-(3-methyl-4-((1-methyl-1H-benzo[d]imidazol-5-yl)oxy)phenyl)pyrimido[5,4-d]pyrimidin-4-amine] | 13.2 nM | 20.9 nM | 4590 nM | 15.4 nM | ≥ 5000 nM | 1.3 | 2.7 |  |
| Cc1cc(Nc2ncnc3cnc(N4C[C@H](O)C(F)(F)C4)nc23)ccc1Oc1ccc2c(c1)ncn2C [Example 170, (S)-4,4-difluoro-1-(8-((3-methyl-4-((1-methyl-1H-benzo[d]imidazol-5-yl)oxy)phenyl)amino)pyrimido[5,4-d]pyrimidin-2-yl)pyrrolidin-3-ol] | 20.1 nM | 28.6 nM | ≥ 10000 nM | 3.4 nM | ≥ 5000 nM | 2.1 | 36 |  |
| CN(c1ncc2ncnc(Nc3ccc(Oc4ccc5c(c4)ncn5C)c(Cl)c3)c2n1)C1COC1 [Example 123, N8-(3-chloro-4-((1-methyl-1H-benzo[d]imidazol-5-yl)oxy)phenyl)-N2-methyl-N2-(oxetan-3-yl)pyrimido[5,4-d]pyrimidine-2,8-diamine] | 26.5 nM | 118 nM | ≥ 10000 nM | 13.2 nM | ≥ 5000 nM | 1.6 | 2.4 |  |
| Cc1c(Oc2ccc3c(c2)ncn3C)ccc(Nc2ncnc3cnc(N4CCC[C@](C)(O)C4)nc23)c1F [Example 147, (S)-1-(8-((2-fluoro-3-methyl-4-((1-methyl-1H-benzo[d]imidazol-5-yl)oxy)phenyl)amino)pyrimido[5,4-d]pyrimidin-2-yl)-3-methylpiperidin-3-ol] | 74.2 nM | 45.5 nM | 2650 nM | 32.6 nM | ≥ 5000 nM | 1 | 2.7 |  |
| Cc1c(Oc2ccc3c(c2)ncn3C)ccc(Nc2ncnc3cnc(N(C)[C@H]4C[C@@](C)(O)C4)nc23)c1F [Example 116, (1s,3s)-3-((8-((2-fluoro-3-methyl-4-((1-methyl-1H-benzo[d]imidazol-5-yl)oxy)phenyl)amino)pyrimido[5,4-d]pyrimidin-2-yl)(methyl)amino)-1-methylcyclobutan-1-ol] | 17.3 nM | 14.8 nM | 1170 nM | 27.8 nM | ≥ 5000 nM | 1.3 | 1.8 |  |
| Cc1cc(Nc2ncnc3cnc(N(C)[C@H]4CCC[C@@H]4O)nc23)ccc1Oc1ccc2c(c1)ncn2C [Example 176, (1S,2S)-2-(methyl(8-((3-methyl-4-((1-methyl-1H-benzo[d]imidazol-5-yl)oxy)phenyl)amino)pyrimido[5,4-d]pyrimidin-2-yl)amino)cyclopentan-1-ol] | 32.2 nM | 30.8 nM | 1250 nM | 25.4 nM | ≥ 5000 nM | 1.4 | 13.5 |  |
| Cc1cc(Nc2ncnc3cnc(N(C)[C@@H]4CCOC4)nc23)ccc1Oc1ccc2c(c1)ncn2C [Example 128, (R)—N2-methyl-N8-(3-methyl-4-((1-methyl-1H-benzo[d]imidazol-5-yl)oxy)phenyl)-N2-(tetrahydrofuran-3-yl)pyrimido[5,4-d]pyrimidine-2,8-diamine] | 21 nM | 20 nM | 3270 nM | 36.3 nM | ≥ 5000 nM | 1.6 | 1.4 |  |
| Cc1cc(Nc2ncnc3cnc(N4CC[C@@H](C(C)(C)O)C4)nc23)ccc1Oc1ccn2ncnc2c1 [Example 124, (R)-2-(1-(8-((4-([1,2,4]triazolo[1,5-a]pyridin-7-yloxy)-3-methylphenyl)amino)pyrimido[5,4-d]pyrimidin-2-yl)pyrrolidin-3-yl)propan-2-ol] | 16 nM | 14.3 nM | 2750 nM | 64.8 nM | ≥ 5000 nM | 1.4 | 10.3 |  |
| CO[C@H]1CN(c2ncc3ncnc(Nc4ccc(Oc5ccc6c(c5)ncn6C)c(C)c4)c3n2)C[C@H]1O [Example 197, (3R,4S)-4-methoxy-1-(8-((3-methyl-4-((1-methyl-1H-benzo[d]imidazol-5-yl)oxy)phenyl)amino)pyrimido[5,4-d]pyrimidin-2-yl)pyrrolidin-3-ol] | 14.1 nM | 21 nM | 8640 nM | 44.9 nM | ≥ 5000 nM | 1.8 | 35.7 |  |
| Cc1c(Oc2ccn3ncnc3c2)ccc(Nc2ncnc3cnc(N4CCC(C)(O)CC4)nc23)c1F [Example 304] | 11.7 nM | 48.6 nM | 2840 nM | 114 nM | ≥ 5000 nM | 1.2 | 7.3 |  |
